The text below walks through data of ChEMBL document CHEMBL3045552, “In vivo screening of diarylimidazoles as anticonvulsant agents” (Med Chem Res, 2012).

Active and inactive are the calls of the source. The calls are words filed in the database; no cut-off is given here.

The subject of data set [1] is Mus musculus. In words: Anticonvulsant activity in ip dosed Mus musculus CF1 albino (mouse) assessed as protection against electrically-induced seizure measured at 0.25 hr by 6Hz psychomotor seizure test. In kind it is functional.
The test system of data set [2] is Mus musculus. The data set can be described thus: Anticonvulsant activity in Mus musculus CF1 albino (mouse) assessed as protection against subcutaneous metrazol-induced seizures at 100 mg/kg, ip measured at 0.5 hr. In kind it is functional, organism-based. Also noted: dose 100 mg/kg.
In data set [3] the test system is Mus musculus. In words: Anticonvulsant activity in Mus musculus CF1 albino (mouse) assessed as protection against maximal electroshock-induced seizures at 300 mg/kg, ip measured at 0.5 hr. In kind it is functional, organism-based. Also noted: dose 300 mg/kg.
For data set [4], the system named is Mus musculus. The data set can be described thus: Neurotoxicity in Mus musculus CF1 albino (mouse) assessed as minimal motor impairment at 30 mg/kg, ip measured at 4 hr by rotorod test. In kind it is toxicity, organism-based. Also noted: dose 30 mg/kg, route intraperitoneal. The following applies: in vivo. Background: The rotarod test checks motor coordination on a turning rod.

In data set [5] the test system is Mus musculus. The data set can be described thus: Anticonvulsant activity in Mus musculus CF1 albino (mouse) assessed as protection against maximal electroshock-induced seizures at 30 mg/kg, ip measured at 0.5 hr. Also noted: dose 30 mg/kg. In kind it is functional, organism-based.
The subject of data set [6] is Mus musculus. The data set can be described thus: Anticonvulsant activity in Mus musculus CF1 albino (mouse) assessed as protection against maximal electroshock-induced seizures at 30 mg/kg, ip measured at 4 hr. In kind it is functional, organism-based. Also noted: dose 30 mg/kg. On the technique in general: Protection in the maximal electroshock model is a classic sign of anticonvulsant action.

Data set [7] has as its system Mus musculus. In words: Anticonvulsant activity in ip dosed Mus musculus CF1 albino (mouse) assessed as protection against maximal electroshock-induced seizures measured at 0.25 hr. The format is functional.
For data set [8], the system named is Mus musculus. The data set can be described thus: Neurotoxicity in Mus musculus CF1 albino (mouse) assessed as minimal motor impairment at 30 mg/kg, ip measured at 0.5 hr by rotorod test. Also noted: dose 30 mg/kg, route intraperitoneal. Particulars: in vivo. The format is toxicity, organism-based.
Data set [9] relates to Mus musculus. The data set can be described thus: Anticonvulsant activity in Mus musculus CF1 albino (mouse) assessed as protection against maximal electroshock-induced seizures at 100 mg/kg, ip measured at 0.5 hr. The format is functional, organism-based. Also noted: dose 100 mg/kg.
The subject of data set [10] is Mus musculus. The data set can be described thus: Anticonvulsant activity in Mus musculus CF1 albino (mouse) assessed as protection against subcutaneous metrazol-induced seizures at 100 mg/kg, ip measured at 4 hr. The format is functional, organism-based. Also noted: dose 100 mg/kg.
Data set [11] has as its system Mus musculus. In words: Anticonvulsant activity in Mus musculus CF1 albino (mouse) assessed as protection against subcutaneous metrazol-induced seizures at 300 mg/kg, ip measured at 0.5 hr. The format is functional, organism-based. Also noted: dose 300 mg/kg.
Data set [12] has as its system Mus musculus. The data set can be described thus: Anticonvulsant activity in Mus musculus CF1 albino (mouse) assessed as protection against electrically-induced seizure at 100 mg/kg, ip measured at 2 hr by 6Hz psychomotor seizure test. In kind it is functional, organism-based. Also noted: dose 100 mg/kg.
The test system of data set [13] is Mus musculus. The data set can be described thus: Anticonvulsant activity in Mus musculus CF1 albino (mouse) assessed as protection against electrically-induced seizure at 100 mg/kg, ip measured at 4 hr by 6Hz psychomotor seizure test. Also noted: dose 100 mg/kg. In kind it is functional, organism-based.
Data set [14] deals with Mus musculus. The data set can be described thus: Anticonvulsant activity in Mus musculus CF1 albino (mouse) assessed as protection against subcutaneous metrazol-induced seizures at 300 mg/kg, ip measured at 4 hr. Also noted: dose 300 mg/kg. In kind it is functional, organism-based.
The subject of data set [15] is Mus musculus. In words: Anticonvulsant activity in Mus musculus CF1 albino (mouse) assessed as protection against maximal electroshock-induced seizures at 300 mg/kg, ip measured at 4 hr. The format is functional, organism-based. Also noted: dose 300 mg/kg.
Data set [16] concerns Mus musculus. In words: Anticonvulsant activity in Mus musculus CF1 albino (mouse) assessed as protection against electrically-induced seizure at 100 mg/kg, ip measured at 0.25 hr by 6Hz psychomotor seizure test. The format is functional, organism-based. Also noted: dose 100 mg/kg.
For data set [17], the system named is Mus musculus. In words: Anticonvulsant activity in Mus musculus CF1 albino (mouse) assessed as protection against subcutaneous metrazol-induced seizures at 30 mg/kg, ip measured at 4 hr. In kind it is functional, organism-based. Also noted: dose 30 mg/kg.
Data set [18] concerns Mus musculus. In words: Anticonvulsant activity in ip dosed Mus musculus CF1 albino (mouse) assessed as protection against subcutaneous metrazol-induced seizures measured at 0.25 hr. In kind it is functional.
The test system of data set [19] is Mus musculus. In words: Anticonvulsant activity in Mus musculus CF1 albino (mouse) assessed as protection against electrically-induced seizure at 100 mg/kg, ip measured at 1 hr by 6Hz psychomotor seizure test. Also noted: dose 100 mg/kg. The format is functional, organism-based.
Data set [20] relates to Mus musculus. In words: Anticonvulsant activity in Mus musculus CF1 albino (mouse) assessed as protection against subcutaneous metrazol-induced seizures at 30 mg/kg, ip measured at 0.5 hr. Also noted: dose 30 mg/kg. The format is functional, organism-based.
Data set [21] deals with Mus musculus. The data set can be described thus: Anticonvulsant activity in Mus musculus CF1 albino (mouse) assessed as protection against electrically-induced seizure at 100 mg/kg, ip measured at 0.5 hr by 6Hz psychomotor seizure test. The format is functional, organism-based. Also noted: dose 100 mg/kg.
The test system of data set [22] is Mus musculus. In words: Anticonvulsant activity in Mus musculus CF1 albino (mouse) assessed as protection against maximal electroshock-induced seizures at 100 mg/kg, ip measured at 4 hr. The format is functional, organism-based. Also noted: dose 100 mg/kg.
Data set [23] deals with Mus musculus. The data set can be described thus: Neurotoxicity in Mus musculus CF1 albino (mouse) assessed as minimal motor impairment at 300 mg/kg, ip measured at 0.5 hr by rotorod test. In kind it is toxicity, organism-based. Also noted: dose 300 mg/kg, route intraperitoneal. The following applies: in vivo.
Data set [24] concerns Mus musculus. The data set can be described thus: Neurotoxicity in Mus musculus CF1 albino (mouse) assessed as minimal motor impairment at 100 mg/kg, ip measured at 4 hr by rotorod test. Particulars: in vivo. In kind it is toxicity, organism-based. Also noted: dose 100 mg/kg, route intraperitoneal.
Data set [25] relates to Mus musculus. The data set can be described thus: Neurotoxicity in Mus musculus CF1 albino (mouse) assessed as minimal motor impairment at 300 mg/kg, ip measured at 4 hr by rotorod test. Particulars: in vivo. In kind it is toxicity, organism-based. Also noted: dose 300 mg/kg, route intraperitoneal.
Data set [26] is described as follows: Neurotoxicity in ip dosed Mus musculus CF1 albino (mouse) assessed as minimal motor impairment measured at 0.25 hr by rotorod test. In kind it is toxicity, organism-based. Particulars: in vivo.
The subject of data set [27] is Mus musculus. The data set can be described thus: Neurotoxicity in Mus musculus CF1 albino (mouse) assessed as minimal motor impairment at 100 mg/kg, ip measured at 0.5 hr by rotorod test. The format is toxicity, organism-based. Also noted: dose 100 mg/kg, route intraperitoneal. The following applies: in vivo.
Data set [28] can be described thus: Protective index, ratio of TD50 for neurotoxicity in ip dosed Mus musculus CF1 albino (mouse) to ED50 for protection against electrically-induced seizure by 6Hz psychomotor seizure test in ip dosed Mus musculus CF1 albino (mouse). The format is toxicity, organism-based. The following applies: in vivo, read-out: Ratio TD50/ED50.

One may read the ED50 as the dose that gives a 50% effect, or the effect in half of the subjects. Regarding `c1ccc(-c2c[nH]c(-c3ccccc3)n2)cc1`, the ED50 in data set [1] was found to be 47.2 mg/kg; in [7], 61.7 mg/kg; in [18], 161 mg/kg. Besides, the result in data set [2], in [6], in data set [10], in data set [11], in data set [12] and in data set [13] was inactive. The result in [14], in data set [17], in [20] and in data set [22] was inactive. Further, the result in data set [3], in data set [5], in [9], in data set [15], in data set [16] and in [19] was Active. Besides, the result in data set [21] was Active. The Activity result in [4] is listed as “Non-toxic”; in data set [8] it was “Non-toxic”; in [23], “Toxic”; in data set [24] it was “Non-toxic”.
The term TD50 denotes the 50% point of the dose-response relation for the toxic effect studied. For `Cc1ccc(-c2nc(-c3ccccc3)c[nH]2)cc1`, the ED50 in data set [1] was determined as 62.4 mg/kg. For the same compound, the result in data set [2], in data set [5], in data set [6], in data set [10], in data set [11] and in [13] was inactive. Besides, the result in data set [14], in data set [17], in data set [20] and in [22] was inactive. Moreover, the outcome in data set [3] and in data set [15] was Active. In addition, the Activity result in data set [4], in [8], in data set [25], in data set [27], in data set [23] and in data set [24] was “Non-toxic” in each case. Moreover, in data set [26], the TD50 at 0.25 h came to 188 mg/kg. Moreover, the selectivity ratio in data set [28] was determined as 3.
Take `FC(F)(F)Oc1ccc(-c2nc(-c3ccccc3)c[nH]2)cc1`: the ED50 in data set [1] is 28.2 mg/kg. In addition, the result in [2], in data set [5], in data set [6], in [9], in data set [10] and in data set [14] was inactive. The outcome in [17] and in data set [20] was inactive. Besides, the result in [3], in [11], in data set [15], in data set [16], in data set [19] and in data set [21] was Active. Further, the Activity result is recorded as “Non-toxic” in [4]; “Non-toxic” in data set [8]; “Non-toxic” in data set [25]; “Non-toxic” in [27]; “Toxic” in [23]; “Non-toxic” in data set [24]. Also, the TD50 at 0.25 h in [26] was 136 mg/kg. In [28], the selectivity ratio was determined as 4.8.
